Experimental findings from patent publication US8546579B2, “Bicycloheteroaryl compounds as P2X7 modulators and uses thereof” (Evotec (US) Inc., priority 2006, dated 2013) are described below.

For the test, the target named is T1, P2X7 receptor (Homo sapiens, UniProt Q99572).
T1 construct: host or cells: THP-1 cells differentiated with LPS and IFN-γ
T1 sequence (Q99572 1-595): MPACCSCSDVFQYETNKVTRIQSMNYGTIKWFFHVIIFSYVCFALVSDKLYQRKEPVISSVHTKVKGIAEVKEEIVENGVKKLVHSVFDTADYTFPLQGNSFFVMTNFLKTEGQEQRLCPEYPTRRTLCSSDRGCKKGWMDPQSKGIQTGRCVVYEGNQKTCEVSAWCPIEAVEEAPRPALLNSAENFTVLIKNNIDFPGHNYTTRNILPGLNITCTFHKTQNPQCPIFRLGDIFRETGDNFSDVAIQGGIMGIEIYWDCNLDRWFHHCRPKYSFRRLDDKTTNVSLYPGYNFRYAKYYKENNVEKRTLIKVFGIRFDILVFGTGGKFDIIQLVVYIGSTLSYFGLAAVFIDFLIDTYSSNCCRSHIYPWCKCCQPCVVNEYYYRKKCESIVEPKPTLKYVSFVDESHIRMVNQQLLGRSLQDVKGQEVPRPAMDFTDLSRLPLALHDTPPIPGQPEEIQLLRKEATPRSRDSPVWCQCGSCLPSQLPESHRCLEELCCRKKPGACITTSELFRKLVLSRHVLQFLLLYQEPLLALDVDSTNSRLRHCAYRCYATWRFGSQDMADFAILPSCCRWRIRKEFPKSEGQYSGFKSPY
The experiment in a line: IL-1β release assay in differentiated THP-1 cells stimulated with BzATP (Example 9). The test is classed as cell-based. As to conditions: for inhibition at 0.3 µM: 0.3 μM compound, differentiated THP-1 cells, BzATP 250 uM, symbols + to ++++, read-out: IL-1β % Inhib. @ 0.3 μM; for IC50: THP-1 cells, BzATP-stimulated IL-1β release, four parameter logistic fit. In short, it runs like this: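 THP-1 cells differentiated 16 h with LPS and IFN-γ (100 ng/mL each), re-primed 2 h with LPS, then compound-pretreated 30 min before 250 uM BzATP for 45 min. Supernatant IL-1β quantified by ELISA; background-adjusted percent inhibition fitted to four-parameter logistic for IC50.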

Take `COc1cccc(CC(=O)Nc2cccc3c(=O)n(Cc4cccnc4)ccc23)c1` [Compound 1353]: the inhibition at 0.3 µM fell in the range of 0 to 25%.

Regarding `COc1ccc(CC(=O)Nc2cccc3c(=O)n(Cc4cccnc4)ccc23)cc1OC` [Compound 1354], the inhibition at 0.3 µM lay within 0 to 25%. Regarding `COc1ccc(CC(=O)Nc2cccc3c(=O)n(Cc4cccnc4)ccc23)cc1` [Compound 1355], the inhibition at 0.3 µM was 0 to 25%. On the same count and under the same terms, to `Cc1ccc(CC(=O)Nc2cccc3c(=O)n(Cc4cccnc4)ccc23)cc1` [Compound 1356] belongs 0 to 25%.

For `O=C(CCCc1ccccc1)Nc1cccc2c(=O)n(Cc3cccnc3)ccc12` [Compound 1357], the inhibition at 0.3 µM was 0 to 25%.

Turning to `O=C(Nc1cccc2c(=O)n(Cc3cccnc3)ccc12)c1cc2ccccc2o1` [Compound 1358], the inhibition at 0.3 µM lay in the range of 0 to 25%. On the same count and under the same terms, to `O=C(Cc1ccc2c(c1)OCO2)Nc1cccc2c(=O)n(Cc3cccnc3)ccc12` [Compound 1359] belongs 26 to 50%; to `COc1cc(CC(=O)Nc2cccc3c(=O)n(Cc4cccnc4)ccc23)cc(OC)c1` [Compound 1360], 26 to 50%.

Consider `COc1c(C)cc(C(=O)Nc2cccc3c(=O)n(Cc4cccnc4)ccc23)cc1C` [Compound 1361], for which the inhibition at 0.3 µM was in the range of 0 to 25%. Consider `O=C(Nc1cccc2c(=O)n(Cc3cccnc3)ccc12)[C@@]12C[C@@H]3C[C@@H](C[C@@H]1C3)C2` [Compound 1362], for which the inhibition at 0.3 µM lay within 0 to 25%. The same measure, in the same setting: as for `O=C(Nc1cccc2c(=O)n(Cc3cccnc3)ccc12)c1cccc2c1OCCO2` [Compound 1363], the figure is 0 to 25%; as for `O=C(Nc1cccc2c(=O)n(Cc3cccnc3)ccc12)c1ccc2c(c1)OCCCO2` [Compound 1364], 0 to 25%.

As to `COc1ccc(CC(=O)Nc2cccc3c(=O)n(Cc4cccnc4)ccc23)c(OC)c1` [Compound 1365], the inhibition at 0.3 µM was in the range of 0 to 25%. The IC50 is the concentration that inhibits the measured activity by half. A high value points to a need for much substance. Consider `CCOc1ccccc1CC(=O)Nc1cccc2c(=O)n(Cc3cccnc3)ccc12` [Compound 1366], for which the inhibition at 0.3 µM fell in the range of 26 to 50% and half-maximal inhibition (IC50) was put at 410 nM. Consider `COc1ccc(CC(=O)Nc2cccc3c(=O)n(Cc4cccnc4)ccc23)cc1C` [Compound 1367], for which the inhibition at 0.3 µM lay in the range of 0 to 25%. On the same count and under the same terms, as for `Cc1ccc(Cl)cc1C(=O)Nc1cccc2c(=O)n(Cc3cccnc3)ccc12` [Compound 1368], the figure is 0 to 25%. As for `Cc1cccc(CCC(=O)Nc2cccc3c(=O)n(Cc4cccnc4)ccc23)c1` [Compound 1369], the inhibition at 0.3 µM is 0 to 25%. On the same count and under the same terms, to `Cc1cccc(C(=O)Nc2cccc3c(=O)n(Cc4cccnc4)ccc23)c1Cl` [Compound 1370] belongs 0 to 25%. Still for that read-out and setting: as for `COc1ccc(C(=O)Nc2cccc3c(=O)n(Cc4cccnc4)ccc23)cc1C` [Compound 1371], the figure is 0 to 25%. On the same count and under the same terms, as for `CC(C)Cc1ccc(C(=O)Nc2cccc3c(=O)n(Cc4cccnc4)ccc23)cc1` [Compound 1372], the figure is 0 to 25%. Consider `O=C(CC1CCCCCC1)Nc1cccc2c(=O)n(CC3CCOCC3)ccc12` [Compound 1373, 2-Cycloheptyl-N-[1-oxo-2-(tetrahydro-pyran-4-ylmethyl)-1,2-dihydro-isoquinolin-5-yl]-acetamide], for which the inhibition at 0.3 µM was at least 76% and the IC50 came to 72.1 nM.

With `CC(=O)OCCn1ccc2c(NC(=O)CCc3cc(C(F)(F)F)ccc3C(F)(F)F)cccc2c1=O` [Compound 1374], the inhibition at 0.3 µM is at least 76% and the IC50 stood at 40.6 nM. Taken in the same sequence, the figures for `CC(=O)OCCn1ccc2c(NC(=O)CC3CCCCCC3)cccc2c1=O` [Compound 1375] were at least 76% and 86.7 nM. Take `CC(=O)OCCn1ccc2c(NC(=O)CCc3cc(C(F)(F)F)cc(C(F)(F)F)c3)cccc2c1=O` [Compound 1376]: the inhibition at 0.3 µM was in the range of 0 to 25% and the concentration for half-maximal inhibition (IC50) worked out at 731 nM. The like results for `CC(=O)OCCn1ccc2c(NC(=O)Cc3ccc4c(c3)OCCO4)cccc2c1=O` [Compound 1377] were, in that order, 0 to 25% and above 1000 nM.
